From US20260250318A1, “COMPOSITIONS AND METHODS FOR CROSSING THE BLOOD BRAIN BARRIER” (VOYAGER THERAPEUTICS, INC., priority 2022, published 2026)

Test system: brains, heart, liver, muscle, and DRG of the NHPs
Assay: Maturation of TTM-001 and TTM-002 capsids, NGS enrichment in NHP tissues
Format: in vivo
Source text: This Example describes maturation of the AAV9 capsid variants, TTM-001 (SEQ ID NO: 981 (amino acid) and 983 (DNA), comprising SEQ ID NO: 941 (encoded by SEQ ID NO: 942)) and TTM-002 (SEQ ID NO: 982 (amino acid) and 984 (DNA), comprising SEQ ID NO: […] (encoded by SEQ ID NO: 944)) in NHPs to further enhance their transduction and biodistribution in the central nervous system as well as other tissues, and evolve the AAV capsid variants to provide further cross-species compatibility. Two approaches were used to mature the TTM-001 and TTM-002 capsid sequences in order to randomize and mutate within and around the peptide insert comprised within loop IV of the capsid variant. […] In the first maturation approach, sets of three contiguous amino acids were randomized across the mutagenesis region in the TTM-001 and TTM-002 sequences, which spanned from position 450 to position 466, numbered according to SEQ ID NO: 981 and 982. In the second maturation approach, mutagenic primers were used to introduce point mutations at a low frequency, scattered across the mutagenesis region in the TTM-001 and TTM-002 sequences ranging from position 449 to position 466, numbered according to SEQ ID NO: 981 and 982. AAV capsid variants arising from each maturation approach for TTM-001 and TTM-002 were pooled together, for subsequent testing and characterization in NHPs.
The library of pooled matured AAV capsid variants generated using the first maturation approach and the second maturation approach for the TTM-001 and TTM-002 AAV capsid variants were injected into two NHPs. […] Following RNA recovery and RT-PCR amplification, a systematic NGS enrichment analysis was performed to calculate the fold enrichment ratio relative to an AAV9 control, and the peptides comprised within the variants were identified.
Following the RNA recovery and NGS analysis from the second maturation approach, approximately 680,000 capsid variants were identified. The 680,000 matured capsid variants were then filtered based on samples with a raw virus count greater than 10 and a coefficient of variance (CV) of less than 1, which was calculated for each peptide across the brain samples taken from the two NHPs. […] Using this filtering criteria, this led to approximately 64,000 matured capsid variants.

[1] = NHP DRG, NGS, relative to AAV9 control
[2] = NHP brain, NGS, relative to AAV9 control
[3] = NHP heart, NGS, relative to AAV9 control
[4] = NHP liver DNA, NGS, relative to AAV9 control
[5] = NHP liver RNA, NGS, TTM-001 and TTM-002 matured AAV capsid variants, relative to AAV9 control
[6] = NHP muscle, NGS, relative to AAV9 control

Sequence	Fold Enrichment relative to AAV9, DRG (NHP) [1]	Fold Enrichment relative to AAV9, Brain (NHP) [2]	Fold Enrichment relative to AAV9, Heart (NHP) [3]	Fold Enrichment relative to AAV9, Liver DNA (NHP) [4]	Fold Enrichment relative to AAV9, Liver RNA (NHP) [5]	Fold Enrichment relative to AAV9, Muscle (NHP) [6]	Fold Enrichment relative to AAV9, DRG (NHP) (NGS fold-enrichment, DRG, NHP, relative to AAV9)	Fold Enrichment relative to AAV9, Brain (NHP) (NGS fold-enrichment, brain, NHP, relative to AAV9)	Fold Enrichment relative to AAV9, Heart (NHP) (NGS fold-enrichment, heart, NHP, relative to AAV9)	Fold Enrichment relative to AAV9, Liver DNA (NHP) (NGS fold-enrichment, liver DNA, NHP, relative to AAV9)	Fold Enrichment relative to AAV9, Liver RNA (NHP) (NGS fold-enrichment, liver RNA, NHP, relative to AAV9)	Fold Enrichment relative to AAV9, Muscle (NHP) (NGS fold-enrichment, muscle, NHP, relative to AAV9)
KTINGSGSPHRWTQNQQT	0.000 fold	0.000 fold	0.000 fold	0.844 fold	12.490 fold	0.000 fold						
KTINGSGSPHSCHQNQQT	0.000 fold	0.000 fold	0.000 fold	8.562 fold	56.242 fold	0.000 fold						
KTINGSGSPHSCPQNQQT	0.000 fold	0.000 fold	0.000 fold	1.776 fold	16.701 fold	0.000 fold						
KTINGSGSPHSCQSNQQT							0.000 fold	0.000 fold	0.000 fold	1.468 fold	10.631 fold	0.000 fold
KTINGSGSPHSCSRNQQT	0.000 fold	0.000 fold	0.000 fold	4.293 fold	40.372 fold	0.000 fold						
KTINGSGSPHSFFGNQQT	0.000 fold	0.000 fold	0.000 fold	6.101 fold	38.088 fold	0.000 fold						
KTINGSGSPHSFPFNQQT	0.000 fold	0.000 fold	0.000 fold	4.693 fold	38.584 fold	0.000 fold						
KTINGSGSPHSFQINQQT	0.000 fold	0.308 fold	1.568 fold	0.269 fold	17.418 fold	0.000 fold						
KTINGSGSPHSFRPNQQT	0.000 fold	0.000 fold	0.000 fold	9.191 fold	44.801 fold	0.000 fold						
KTINGSGSPHSFRYNQQT	0.000 fold	0.000 fold	0.000 fold	4.148 fold	21.097 fold	0.000 fold						
KTINGSGSPHSFTCNQQT	0.000 fold	0.000 fold	0.000 fold	2.155 fold	63.936 fold	271.289 fold						
KTINGSGSPHSFTPNQQT	0.000 fold	0.000 fold	0.000 fold	1.036 fold	24.227 fold	0.000 fold						
KTINGSGSPHSFWSNQQT	0.000 fold	0.000 fold	0.000 fold	1.345 fold	22.857 fold	0.000 fold						
KTINGSGSPHSGACNQQT	0.000 fold	0.000 fold	0.000 fold	3.215 fold	39.163 fold	4733.916 fold						
KTINGSGSPHSGCQNQQT	0.000 fold	0.000 fold	0.000 fold	1.981 fold	24.818 fold	0.000 fold						
KTINGSGSPHSGKRNQQT	0.000 fold	0.000 fold	0.000 fold	5.396 fold	35.120 fold	0.000 fold						
KTINGSGSPHSKAARRQT	0.000 fold	0.000 fold	0.000 fold	6.633 fold	19.998 fold	0.000 fold						
KTINGSGSPHSKACISQT	0.000 fold	0.000 fold	0.000 fold	0.240 fold	17.371 fold	0.000 fold						
KTINGSGSPHSKACQFQT	0.000 fold	0.000 fold	0.000 fold	8.562 fold	17.640 fold	9.605 fold						
KTINGSGSPHSKACRLQT	0.000 fold	0.000 fold	0.000 fold	6.537 fold	12.297 fold	0.000 fold						
KTINGSGSPHSKACSRQT	0.000 fold	0.000 fold	0.000 fold	2.468 fold	42.696 fold	0.000 fold						
KTINGSGSPHSKAFSWQT	0.000 fold	0.000 fold	0.000 fold	1.805 fold	51.304 fold	0.000 fold						
KTINGSGSPHSKAFYIQT	0.000 fold	0.000 fold	0.000 fold	0.239 fold	17.172 fold	0.000 fold						
KTINGSGSPHSKAFYRQT	0.000 fold	0.000 fold	0.000 fold	3.577 fold	77.541 fold	0.000 fold						
KTINGSGSPHSKAHARQT	0.000 fold	0.000 fold	0.000 fold	1.800 fold	17.075 fold	0.000 fold						
